Experiment [1] has as its target T1, EGFR (Homo sapiens, UniProt P00533).
T1 construct: EGF receptor tyrosin-protein kinase activity was assessed in human A431 cells; endogenous in cells; host or cells: human A431 cells
Put plainly: EGF receptor tyrosine-protein kinase inhibition (ELISA of Poly[Glu:Tyr-P]). The experiment is classed as biochemical. As to the method: EGF receptor tyrosin-protein kinase activity was assessed in human A431 cells using as a substrate Poly(Glu:Tyr) at 10 µg/ml with a preincubation and incubation times of 15 and 60 min, respectively, at 25°C respectively in 50 mM HEPES pH 7.4, 20 mM MgCl2 and 0.2 mM Na3VO4. An ELISA quantification method of Poly[Glu:Tyr-P] was employed (Cheng, K. and Koland, J.G. J Biol Chem, 1996, 271, 311-318). Table 5. Inhibition of EGFR at 10 µM
Background: In an ELISA, binding on a coated surface is turned into a signal by an enzyme label.

Experiment [2] has as its target T2, COX-1 (Homo sapiens, UniProt P23219).
T2 construct: endogenous in cells; host or cells: human platelets
Put plainly: COX-1 inhibition in human platelets (PGE2 enzyme immunoassay). The experiment is classed as biochemical. Conditions: read-out: % COX-1 Inhibition. As to the method: (§1) The COX-1 inhibitory activity of representative compounds of the invention was determined according to previously reported methods. COX-1 activity was assessed in human platelets using 100 µM arachidonic acid as a substrate and preincubation and incubation times of 15 min at 37 °C in HBSS, 15 mM HEPES pH 7.4 . The quantification method used was enzyme immunoassay determination of PGE2 (Chan, C.C. et al. J Pharmacol Exp Ther, 1999, 290, 551-560; Swinney, D.C. et al. J Biol Chem, 1997, 272, 12393-12398; Warner, T.D. et al. Proc Natl Acad Sci U S A, 1999, 96, 7563-7568; Riendeau, D. et al. Can J Physiol Pharmacol, 1997, 75, 1088-1095). COX-2 inhibitory activity was determined in human recombinant insect Sf21 cells according to references (Warner, T.D. et al., Proc Natl Acad Sci, USA. 1999;96(13):7563-7568; Riendeau, D. et al., Can J Physiol Pharmacol, 1997 ;75(9):1088-1095). Briefly, the COX-2 inhibitory activity was assessed on human recombinant insect Sf21 cells using 0.3 µM arachidonic acid as a substrate and preincubation and incubation times of 15 and 5 min, respectively, at 37 °C in 100 mM Tris-HCl, pH 7.7. The quantification method used was enzyme immunoassay determination of PGE2. Table 11. Inhibition of COX-1 and COX-2 at 10 µM

For experiment [3], the system named is tumor melanoma B16-FO. In words: Tumor cell proliferation assay (alamarBlue). The experiment is classed as cell-based, murine. Conditions: Mus musculus. As to the method:
Changes in cell proliferation were detected based on the ability of viable cells to cause alamarBlue® to change its oxidized (non-fluorescent, blue) to a reduced (fluorescent, red) form. The alamarBlue® reaction allows the quantification of cell proliferation and examination of the metabolic activity of viable cells. Test substances were examined for activity on the proliferation of human or murine tumor cell lines at assay concentrations from 0.01 to 100 µM.

In experiment [4] the target is T3, COX-2 (Homo sapiens, UniProt P35354).
T3 construct: host or cells: Sf21 insect cells
T3 sequence (P35354 18-604): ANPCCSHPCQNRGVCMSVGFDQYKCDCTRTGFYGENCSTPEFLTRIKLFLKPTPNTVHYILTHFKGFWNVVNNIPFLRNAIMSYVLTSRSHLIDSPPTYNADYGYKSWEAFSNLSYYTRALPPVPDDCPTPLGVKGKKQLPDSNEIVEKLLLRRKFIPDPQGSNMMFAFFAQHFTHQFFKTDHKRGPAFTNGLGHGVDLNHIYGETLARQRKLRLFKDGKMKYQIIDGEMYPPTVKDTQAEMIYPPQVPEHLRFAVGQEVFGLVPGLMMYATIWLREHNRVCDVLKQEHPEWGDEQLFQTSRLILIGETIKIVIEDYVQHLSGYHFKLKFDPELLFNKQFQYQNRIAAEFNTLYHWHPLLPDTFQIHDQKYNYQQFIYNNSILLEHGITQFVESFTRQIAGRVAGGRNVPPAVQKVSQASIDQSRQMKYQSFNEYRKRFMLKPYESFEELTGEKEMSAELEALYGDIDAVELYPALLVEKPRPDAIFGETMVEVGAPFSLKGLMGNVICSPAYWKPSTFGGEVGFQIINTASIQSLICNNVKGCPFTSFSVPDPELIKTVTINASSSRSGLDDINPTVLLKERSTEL
In words: COX-2 inhibition (PGE2 enzyme immunoassay). Format: biochemical. Conditions: read-out: % COX-2 inhibition. As to the method: as §1

For experiment [5], the target named is T4, 5-LO (Homo sapiens, UniProt P09917).
T4 construct: host or cells: Sf9 insect cells
T4 sequence (P09917 1-674): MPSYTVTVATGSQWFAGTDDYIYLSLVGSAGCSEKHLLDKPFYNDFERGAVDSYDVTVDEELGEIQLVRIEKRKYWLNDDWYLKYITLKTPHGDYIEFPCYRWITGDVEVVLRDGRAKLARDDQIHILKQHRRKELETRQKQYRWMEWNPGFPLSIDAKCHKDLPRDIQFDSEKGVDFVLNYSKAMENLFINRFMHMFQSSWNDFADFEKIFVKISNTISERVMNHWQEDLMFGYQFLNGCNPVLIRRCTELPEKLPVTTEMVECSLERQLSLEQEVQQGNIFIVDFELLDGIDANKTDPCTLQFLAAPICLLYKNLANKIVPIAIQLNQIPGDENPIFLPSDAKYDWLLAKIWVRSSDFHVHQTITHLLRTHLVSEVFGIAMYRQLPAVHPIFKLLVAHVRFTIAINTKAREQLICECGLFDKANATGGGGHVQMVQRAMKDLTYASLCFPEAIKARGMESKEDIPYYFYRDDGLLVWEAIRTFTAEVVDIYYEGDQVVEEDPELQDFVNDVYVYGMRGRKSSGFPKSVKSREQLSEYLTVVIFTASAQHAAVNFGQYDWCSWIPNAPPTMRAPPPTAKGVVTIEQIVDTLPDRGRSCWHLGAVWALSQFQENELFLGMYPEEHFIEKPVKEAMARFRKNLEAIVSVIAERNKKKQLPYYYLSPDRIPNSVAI
Put plainly: 5-Lipoxygenase inhibition (LTB4 enzyme immunoassay). Format: biochemical. As to the method: The 5-LO-inhibitory activity of compounds of the invention was determined using previously reported assays. Briefly, lipoxygenase activity was evaluated in human recombinant insect Sf9 cells using 3µM arachidonic acid as a substrate with a preincubation and incubation times of 15 and 5 min respectively at 25°C in a 50 mM Tris-HCl, pH 7.4, 2 mM CaCl2, 1 mM ATP. The quantification method used was enzyme immunoassay determination of LTB4 and the significance criteria were established with a response equal or different of the maximum stimulation or inhibition (Noguchi, M. et al., Eur J Biochem, 1994, 222(2), 285-292; Percival, M.D. et al., Eur J Biochem, 1992, 210(1), 109-117).

[6] abbreviates: EGFR, at 10 µM, read-out: % Inhibition.
Where [7] appears, read: tumor melanoma B16-FO, read-out: IC50.
Where [8] appears, read: 5-LO, at 10 µM, read-out: % Inhibition.

Where a name gives a salt, the structure may show the parent alone. Read-outs that look alike come from different tables or passages of the source.

T1 sequence (P00533 25-1210): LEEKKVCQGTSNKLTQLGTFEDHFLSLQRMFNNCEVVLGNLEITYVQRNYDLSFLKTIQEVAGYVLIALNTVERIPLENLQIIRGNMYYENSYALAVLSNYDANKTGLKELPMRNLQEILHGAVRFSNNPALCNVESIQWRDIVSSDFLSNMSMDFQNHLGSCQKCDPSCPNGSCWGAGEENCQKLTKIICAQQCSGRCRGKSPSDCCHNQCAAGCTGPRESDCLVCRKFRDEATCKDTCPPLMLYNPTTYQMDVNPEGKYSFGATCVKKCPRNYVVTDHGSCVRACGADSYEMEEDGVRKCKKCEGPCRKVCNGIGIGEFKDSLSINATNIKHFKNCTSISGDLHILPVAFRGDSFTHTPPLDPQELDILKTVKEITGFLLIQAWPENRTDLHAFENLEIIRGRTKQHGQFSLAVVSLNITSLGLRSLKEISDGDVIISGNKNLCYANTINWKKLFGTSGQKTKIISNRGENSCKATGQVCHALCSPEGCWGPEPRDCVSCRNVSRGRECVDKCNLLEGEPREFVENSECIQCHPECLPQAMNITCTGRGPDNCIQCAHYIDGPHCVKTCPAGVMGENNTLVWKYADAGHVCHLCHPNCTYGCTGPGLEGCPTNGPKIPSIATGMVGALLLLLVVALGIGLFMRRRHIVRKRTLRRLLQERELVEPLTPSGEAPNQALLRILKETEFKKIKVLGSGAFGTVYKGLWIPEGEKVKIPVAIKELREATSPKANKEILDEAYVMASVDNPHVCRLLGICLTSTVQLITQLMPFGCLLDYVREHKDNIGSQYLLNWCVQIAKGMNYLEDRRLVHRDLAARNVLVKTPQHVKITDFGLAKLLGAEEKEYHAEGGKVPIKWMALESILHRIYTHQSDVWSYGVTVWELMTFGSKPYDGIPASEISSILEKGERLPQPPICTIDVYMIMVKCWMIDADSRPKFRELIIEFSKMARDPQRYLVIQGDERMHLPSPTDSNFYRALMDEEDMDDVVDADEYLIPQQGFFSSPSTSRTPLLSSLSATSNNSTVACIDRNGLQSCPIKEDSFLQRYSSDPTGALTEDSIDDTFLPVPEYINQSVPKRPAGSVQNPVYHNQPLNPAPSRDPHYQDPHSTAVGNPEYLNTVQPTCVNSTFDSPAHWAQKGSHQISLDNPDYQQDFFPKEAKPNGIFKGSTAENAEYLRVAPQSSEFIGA
T2 sequence (P23219 24-599): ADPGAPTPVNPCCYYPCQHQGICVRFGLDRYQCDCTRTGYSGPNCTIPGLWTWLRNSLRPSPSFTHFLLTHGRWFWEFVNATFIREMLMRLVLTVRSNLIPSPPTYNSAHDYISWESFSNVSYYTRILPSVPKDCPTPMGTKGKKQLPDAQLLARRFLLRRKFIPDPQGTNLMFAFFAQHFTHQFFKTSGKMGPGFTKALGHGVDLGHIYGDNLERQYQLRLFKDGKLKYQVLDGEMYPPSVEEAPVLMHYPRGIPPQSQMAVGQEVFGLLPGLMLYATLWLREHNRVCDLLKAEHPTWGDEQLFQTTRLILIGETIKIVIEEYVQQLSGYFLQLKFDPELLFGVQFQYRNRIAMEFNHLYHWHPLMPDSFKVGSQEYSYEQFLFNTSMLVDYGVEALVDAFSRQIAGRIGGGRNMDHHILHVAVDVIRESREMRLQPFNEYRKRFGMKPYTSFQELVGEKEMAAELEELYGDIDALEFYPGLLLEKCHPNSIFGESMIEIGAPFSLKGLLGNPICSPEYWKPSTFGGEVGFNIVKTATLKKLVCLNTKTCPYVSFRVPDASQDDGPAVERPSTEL

On to `C=CCc1ccc(O)c(-c2ccc(OC(CCNC)c3ccccc3)c(CC=C)c2)c1` (stereo not drawn) [Example 5, 3',5-Diallvl-4'-13-(methylamino)-1-phenylpropoxy]biphenyl-2-ol hydrochloride], for which the inhibition (in general, the drop in the measured response relative to a control, in per cent) at 10 µM was determined as 99% in experiment [1], 75% in experiment [2], 0% in experiment [4] and 101% in experiment [5]. Also, in experiment [3], inhibition was half-maximal at 1600 nM (IC50).

Consider `C=CCc1ccc(O)c(-c2cc(CC=C)ccc2OC(CCNC)c2ccccc2)c1.Cl` (stereo not drawn) [Example 1, 5,5'-Diallyl-2'-[3-(methylamino)-1-phenylpropoxy]biphenyl-2-ol hydrochloride], for which the inhibition at 10 µM in experiment [1] (setting [6]) amounted to 72%; in experiment [2] (at 10 µM, human platelets) it was 81%; in experiment [4] (at 10 µM), 0%; in experiment [5] (setting [8]), 100%. Further, in experiment [3] (setting [7]), the IC50 (usually the midpoint of a concentration-inhibition curve) came to 1900 nM.

On to `C=CCc1ccc(O)c(-c2ccc(O)c(CC=C)c2)c1` [Honokiol, reference compound], for which the inhibition at 10 µM in experiment [1] (setting [6]) is 7%; in experiment [2] (at 10 µM, human platelets), 0%; in experiment [4] (at 10 µM), 79%; in experiment [5] (setting [8]), 85%. For the same compound, in experiment [3] (setting [7]), the IC50 came out at 30000 nM.
